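Tested at 5 concentrations; 48 h exposure; 96-well plates; endpoints linearly interpolated, else capped at highest concentration. TGI denotes the concentration required for complete inhibition of growth.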
Tests used:
Assay in all cases: inhibition of tumour cell growth, NCI panel, 48 h
HS 578T breast = tested on: HS 578T breast
UACC-257 melanoma = tested on: UACC-257 melanoma
HOP-62 NSCLC = tested on: HOP-62 NSCLC
RPMI-8226 leukemia = tested on: RPMI-8226 leukemia
SK-MEL-28 melanoma = tested on: SK-MEL-28 melanoma
MDA-MB-231 breast = tested on: MDA-MB-231 breast
OVCAR-3 ovarian = tested on: OVCAR-3 ovarian
NCI-H522 lung = tested on: NCI-H522 lung
MCF7 breast = tested on: MCF7 breast
U251 CNS = tested on: U251 CNS
A549 NSCLC = tested on: A549 NSCLC
EKVX NSCLC = tested on: EKVX NSCLC
K-562 leukemia = tested on: K-562 leukemia
NCI-H460 lung = tested on: NCI-H460 lung
HCC-2998 colon = tested on: HCC-2998 colon
SF-295 CNS = tested on: SF-295 CNS
IGROV1 ovarian = tested on: IGROV1 ovarian
ACHN renal = tested on: ACHN renal
TK-10 renal = tested on: TK-10 renal
SNB-19 CNS = tested on: SNB-19 CNS
MDA-N = tested on: MDA-N
UO-31 renal = tested on: UO-31 renal
CAKI-1 renal = tested on: CAKI-1 renal
UACC-62 melanoma = tested on: UACC-62 melanoma
SK-MEL-2 melanoma = tested on: SK-MEL-2 melanoma
HCT-116 colon = tested on: HCT-116 colon
SF-268 CNS = tested on: SF-268 CNS
OVCAR-5 ovarian = tested on: OVCAR-5 ovarian
NCI/ADR-RES ovarian = tested on: NCI/ADR-RES ovarian
MDA-MB-435 = tested on: MDA-MB-435
T-47D breast = tested on: T-47D breast
CCRF-CEM leukemia = tested on: CCRF-CEM leukemia
HT29 colon = tested on: HT29 colon
DU-145 prostate = tested on: DU-145 prostate
MALME-3M melanoma = tested on: MALME-3M melanoma
LOX IMVI melanoma = tested on: LOX IMVI melanoma
SW-620 colon = tested on: SW-620 colon
BT-549 breast = tested on: BT-549 breast
786-0 renal = tested on: 786-0 renal
OVCAR-8 ovarian = tested on: OVCAR-8 ovarian
COLO 205 colon = tested on: COLO 205 colon
RXF 393 renal = tested on: RXF 393 renal
OVCAR-4 ovarian = tested on: OVCAR-4 ovarian
SK-OV-3 ovarian = tested on: SK-OV-3 ovarian
SK-MEL-5 melanoma = tested on: SK-MEL-5 melanoma
A498 renal = tested on: A498 renal
KM12 colon = tested on: KM12 colon
HCT-15 colon = tested on: HCT-15 colon
PC-3 prostate = tested on: PC-3 prostate
MOLT-4 leukemia = tested on: MOLT-4 leukemia
NCI-H226 lung = tested on: NCI-H226 lung
SN12C renal = tested on: SN12C renal
NCI-H23 lung = tested on: NCI-H23 lung
HOP-92 NSCLC = tested on: HOP-92 NSCLC
HL-60(TB) leukemia = tested on: HL-60(TB) leukemia
M14 melanoma = tested on: M14 melanoma
SR leukemia = tested on: SR leukemia
SNB-75 CNS = tested on: SNB-75 CNS

CN1C/C(=C\c2cccs2)C2=NN(C)C(c3cccs3)C2C1 (stereo not given)
TGI (HS 578T breast): > 100 µM
TGI (UACC-257 melanoma): > 100 µM
TGI (HOP-62 NSCLC): > 100 µM
TGI (RPMI-8226 leukemia): 95.3 µM
TGI (SK-MEL-28 melanoma): > 100 µM
TGI (MDA-MB-231 breast): > 100 µM
TGI (OVCAR-3 ovarian): > 100 µM
TGI (NCI-H522 lung): > 100 µM
TGI (MCF7 breast): > 100 µM
TGI (U251 CNS): > 100 µM
TGI (A549 NSCLC): > 100 µM
TGI (EKVX NSCLC): > 100 µM
TGI (K-562 leukemia): > 100 µM
TGI (NCI-H460 lung): > 100 µM
TGI (HCC-2998 colon): > 100 µM
TGI (SF-295 CNS): > 100 µM
TGI (IGROV1 ovarian): > 100 µM
TGI (ACHN renal): > 100 µM
TGI (TK-10 renal): > 100 µM
TGI (SNB-19 CNS): > 100 µM
TGI (MDA-N): > 100 µM
TGI (UO-31 renal): > 100 µM
TGI (CAKI-1 renal): > 100 µM
TGI (UACC-62 melanoma): > 100 µM
TGI (SK-MEL-2 melanoma): 81.2 µM
TGI (HCT-116 colon): > 100 µM
TGI (SF-268 CNS): > 100 µM
TGI (OVCAR-5 ovarian): > 100 µM
TGI (NCI/ADR-RES ovarian): > 100 µM
TGI (MDA-MB-435): > 100 µM
TGI (T-47D breast): > 100 µM
TGI (CCRF-CEM leukemia): > 100 µM
TGI (HT29 colon): > 100 µM
TGI (DU-145 prostate): > 100 µM
TGI (MALME-3M melanoma): > 100 µM
TGI (LOX IMVI melanoma): > 100 µM
TGI (SW-620 colon): > 100 µM
TGI (BT-549 breast): > 100 µM
TGI (786-0 renal): > 100 µM
TGI (OVCAR-8 ovarian): > 100 µM
TGI (COLO 205 colon): > 100 µM
TGI (RXF 393 renal): > 100 µM
TGI (OVCAR-4 ovarian): > 100 µM
TGI (SK-OV-3 ovarian): > 100 µM
TGI (SK-MEL-5 melanoma): > 100 µM
TGI (A498 renal): > 100 µM
TGI (KM12 colon): > 100 µM
TGI (HCT-15 colon): > 100 µM
TGI (PC-3 prostate): > 100 µM
TGI (MOLT-4 leukemia): > 100 µM
TGI (NCI-H226 lung): > 100 µM
TGI (SN12C renal): > 100 µM
TGI (NCI-H23 lung): > 100 µM
TGI (HOP-92 NSCLC): > 100 µM
TGI (HL-60(TB) leukemia): 43.6 µM
TGI (M14 melanoma): > 100 µM

c1ccc(N=C(Nc2ccccc2)N2CCCC2)cc1
TGI (HS 578T breast): > 100 µM
TGI (UACC-257 melanoma): > 100 µM
TGI (HOP-62 NSCLC): > 100 µM
TGI (RPMI-8226 leukemia): > 100 µM
TGI (SK-MEL-28 melanoma): > 100 µM
TGI (OVCAR-3 ovarian): > 100 µM
TGI (SR leukemia): > 100 µM
TGI (NCI-H522 lung): > 100 µM
TGI (MCF7 breast): > 100 µM
TGI (U251 CNS): > 100 µM
TGI (A549 NSCLC): > 100 µM
TGI (SNB-75 CNS): > 100 µM
TGI (EKVX NSCLC): > 100 µM
TGI (K-562 leukemia): > 100 µM
TGI (NCI-H460 lung): > 100 µM
TGI (SF-295 CNS): > 100 µM
TGI (IGROV1 ovarian): > 100 µM
TGI (ACHN renal): > 100 µM
TGI (TK-10 renal): > 100 µM
TGI (SNB-19 CNS): > 100 µM
TGI (MDA-N): > 100 µM
TGI (UO-31 renal): > 100 µM
TGI (CAKI-1 renal): > 100 µM
TGI (UACC-62 melanoma): > 100 µM
TGI (SK-MEL-2 melanoma): > 100 µM
TGI (HCT-116 colon): > 100 µM
TGI (SF-268 CNS): > 100 µM
TGI (OVCAR-5 ovarian): > 100 µM
TGI (NCI/ADR-RES ovarian): > 100 µM
TGI (MDA-MB-435): > 100 µM
TGI (T-47D breast): > 100 µM
TGI (CCRF-CEM leukemia): > 100 µM
TGI (HT29 colon): > 100 µM
TGI (DU-145 prostate): > 100 µM
TGI (MALME-3M melanoma): > 100 µM
TGI (LOX IMVI melanoma): > 100 µM
TGI (SW-620 colon): > 100 µM
TGI (BT-549 breast): > 100 µM
TGI (786-0 renal): > 100 µM
TGI (OVCAR-8 ovarian): > 100 µM
TGI (COLO 205 colon): > 100 µM
TGI (OVCAR-4 ovarian): > 100 µM
TGI (SK-OV-3 ovarian): > 100 µM
TGI (SK-MEL-5 melanoma): > 100 µM
TGI (KM12 colon): > 100 µM
TGI (HCT-15 colon): > 100 µM
TGI (PC-3 prostate): > 100 µM
TGI (MOLT-4 leukemia): > 100 µM
TGI (NCI-H226 lung): > 100 µM
TGI (SN12C renal): > 100 µM
TGI (NCI-H23 lung): > 100 µM
TGI (HOP-92 NSCLC): > 100 µM
TGI (HL-60(TB) leukemia): > 100 µM
TGI (M14 melanoma): > 100 µM
